What follows are compounds tested against T1, rat MCH1 receptor (Rattus norvegicus, UniProt P97639) (assay: Radioligand binding assay at cloned rat MCH1 receptor ([3H]Compound A displacement)). Conditions: KI, cloned rat MCH1, membranes of transfected Peakr293 cells, 0.08 nM [3H]Compound A, 25° C., 90 minutes.
T1 construct: expressed in transfected cells; host or cells: Human embryonic kidney Peak rapid 293 cells (Peakr293), transient, calcium phosphate; membranes
Experimental: For binding assays, pellets of transfected cells are suspended in ice-cold buffer (20 mM Tris.HCl, 5 mM EDTA, pH 7.4) and homogenized by sonication for 7 sec. The cell lysates are centrifuged at 200×g for 5 min at 4° C. The supernatants are then centrifuged at 40,000×g for 20 min at 4° C. The resulting pellets are washed once in the homogenization buffer and suspended in binding buffer (see methods for radioligand binding). Protein concentrations are determined by the method of Bradford (1976) using bovine serum albumin as the standard. Binding assays are usually performed immediately, however it is possible to prepare membranes in batch and store frozen in liquid nitrogen for future use.
Radioligand binding assays for the rat MCH1 receptor were carried out using plasmid pcDNA3.1-rMCH1-f (ATCC Patent Deposit Designation No. PTA-3505). Plasmid pcDNA3.1-rMCH1-f comprises the regulatory elements necessary for expression of DNA in a mammalian cell operatively linked to DNA encoding the rat MCH1 receptor so as to permit expression thereof. Plasmid pcDNA3.1-rMCH1-f was deposited on Jul. 5, 2001, with the American Type Culture Collection (ATCC), 12301 Parklawn Drive, Rockville, Md. 20852, U.S.A. under the provisions of the Budapest Treaty for the International Recognition of the Deposit of Microorganisms for the Purposes of Patent Procedure and was accorded ATCC Patent Deposit Designation No. PTA-3505.
Human embryonic kidney Peak rapid 293 cells (Peakr293 cells) were transiently transfected with DNA encoding the MCH1 receptor utilizing the calcium phosphate method and cell membranes were prepared as described above. Binding experiments with membranes from Peakr293 cells transfected with the rat MCH1 receptor were performed with 0.08 nM [^3H]Compound A (custom labeled by Amersham) (the synthesis of Compound A is described in detail below) using an incubation buffer consisting of 50 mM Tris pH 7.4, 10 mM MgCl2, 0.16 mM PMSF, 1 mM 1,10 phenantroline and 0.2% BSA. Binding was performed at 25° C. for 90 minutes. Incubations were terminated by rapid vacuum filtration over GF/C glass fiber filters, presoaked in 5% PEI using […] Tris pH 7.4 as wash buffer. In all experiments, nonspecific binding is defined using […] Compound A.
The compounds described above were assayed using cloned rat MCH1.

T1 sequence (P97639 whole entry): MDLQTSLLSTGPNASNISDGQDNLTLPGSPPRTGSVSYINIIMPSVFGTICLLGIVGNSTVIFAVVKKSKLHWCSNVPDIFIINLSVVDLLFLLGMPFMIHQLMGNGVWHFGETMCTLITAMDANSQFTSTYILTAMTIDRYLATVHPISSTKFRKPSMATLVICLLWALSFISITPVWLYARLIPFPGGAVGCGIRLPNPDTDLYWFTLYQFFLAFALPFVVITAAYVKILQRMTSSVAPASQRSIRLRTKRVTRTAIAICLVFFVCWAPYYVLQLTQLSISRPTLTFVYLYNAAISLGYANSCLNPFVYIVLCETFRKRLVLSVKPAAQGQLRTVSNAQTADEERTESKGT

| SMILES | Ki |
| --- | --- |
| CC(C)(C(=O)NCCCN1CCC2(CCc3ccccc32)CC1)c1ccc(Cl)cc1 [Example 46] | 0.0841 µM |
| S=C(NCCCCCN1CCC2(CCc3ccccc32)CC1)Nc1cccc2ccccc12 [Example 22, (NAPHTHYLAMINO)[(5-(SPIRO[INDANE-1,4′-PIPERIDINE]-10-YL)PENTYL)AMINO]METHANE-1-THIONE] | 0.517 µM |
| CC(C(=O)NCCCN1CCC2(CC1)OCc1ccccc12)(c1ccccc1)c1ccccc1 [Example 88, 2,2-DIPHENYL-N-(3-(SPIRO[1,3-DIHYDROISOBENZOFURAN-1,4′-PIPERIDINE]-10-YL)PROPYL)PROPANAMIDE] | 0.144 µM |
| O=C(NCCCCCN1CCC2(CCc3ccccc32)CC1)C(c1ccccc1)c1ccccc1 [Example 3, 2,2-DIPHENYL-N-(5-(SPIRO[INDANE-1,4′-PIPERIDINE]-10-YL)PENTYL)ACETAMIDE] | 0.378 µM |
| O=C(NCCCN1CCC2(CC1)OCc1ccccc12)C1(c2ccc(Cl)cc2)CCC1 [Example 87, [(4-CHLOROPHENYL)CYCLOBUTYL]-N-(3-(SPIRO[1,3-DIHYDROISOBENZOFURAN-1,4′-PIPERIDINE]-10-YL)PROPYL)CARBOXAMIDE] | 0.417 µM |
| Cc1ccc(C(C(=O)NCCCN2CCC3(CC2)C(=O)CCc2ccccc23)c2ccc(C)cc2)cc1 [Example 97, 2,2-BIS(4-METHYL)PHENYL)-N-[3-(2-OXOSPIRO[1,3,4-TRIHYDRONAPHTHALENE-1,4′-PIPERIDINE]-11-YL)PROPYL]ACETAMIDE] | 0.428 µM |
| O=C(NCCCCCCN1CCC2(CCc3ccccc32)CC1)c1ccc(Oc2cc(Cl)cc(Cl)c2)o1 [Example 16, [5-(3,5-DICHLOROPHENOXY)(2-FURYL)]-N-(6-(SPIRO[INDANE-1,4′-PIPERIDINE]-10-YL)HEXYL)CARBOXAMIDE] | 0.45 µM |
| O=C(NCCCN1CCC2(C=Cc3ccccc32)CC1)C(c1ccc(F)cc1)c1ccc(F)cc1 [Example 67, 2,2-BIS(4-FLUOROPHENYL)-N-(3-(SPIRO[INDENE-1,4′-PIPERIDINE]-10-YL)PROPYL)ACETAMIDE] | 0.0024 µM |
| CC(C)(C(=O)NCCCN1CCC2(C=Cc3ccccc32)CC1)c1ccc(Cl)cc1 [Example 65, 2-(4-CHLOROPHENYL)-2-METHYL-N-(3-(SPIRO[INDENE-1,4′-PIPERIDINE]-10-YL)PROPYL)PROPANAMIDE] | 0.078 µM |
| O=C(NCCCN1CCC2(CC1)OCc1ccccc12)C(c1ccccc1)(c1ccccc1)c1ccccc1 [Example 77, 2,2,2-TRIPHENYL-N-(3-(SPIRO[1,3-DIHYDROISOBENZOFURAN-1,4′-PIPERIDINE]-10-YL)PROPYL)ACETAMIDE] | 0.151 µM |
| CC(C(=O)NCCCN1CCC2(CC1)OCc1ccccc12)c1ccc(F)cc1 (stereo not drawn) [Example 82, 2-(4-FLUOROPHENYL)-N-(3-(SPIRO[1,3-DIHYDROISOBENZOFURAN-1,4′-PIPERIDINE]-10-YL) PROPYL) PROPANAMIDE] | 0.679 µM |
| O=C(NCCCN1CCC2(CC1)OCc1ccccc12)C1(c2ccc(F)cc2)CCCC1 [Example 79, [(4-FLUOROPHENYL)CYCLOPENTYL]-N-(3-(SPIRO[1,3-DIHYDROISOBENZOFURAN-1,4′-PIPERIDINE]-10-YL)PROPYL)CARBOXAMIDE] | 0.514 µM |
| S=C(NCCCCN1CCC2(CCc3ccccc32)CC1)Nc1cccc2ccccc12 [Example 23, (NAPHTHYLAMINO)[(4-(SPIRO[INDANE-1,4′-PIPERIDINE]-10-YL-BUTYL)AMINO]METHANE-1-THIONE] | 0.818 µM |
| O=C(NCCCCN1CCC2(CCc3ccccc32)CC1)c1ccc(Oc2cc(Cl)cc(Cl)c2)o1 [Example 15, [5-(3,5-dichlorophenoxy)(2-furyl)]-N-(4-(SPIRO[indane-1,4′-piperidine]-10-YL)BUTYL)carboxamide] | 0.434 µM |

Same assay, conditions: cloned rat MCH1, membranes of transfected Peakr293 cells, 0.08 nM [3H]Compound A, 25° C., 90 minutes; read-out: KI

| SMILES | Ki |
| --- | --- |
| O=C(NCCCN1CCC2(C=Cc3ccccc32)CC1)C1(c2ccc(Cl)cc2)CCC1 [Example 74, [(4-CHLOROPHENYL)CYCLOBUTYL]-N-(3-(SPIRO[INDENE-1,4′-PIPERIDINE]-10-YL)PROPYL)CARBOXAMIDE] | 0.185 µM |
| O=C(NCCCN1CCC2(CC1)Cc1ccccc1C2)C(c1ccccc1)c1ccccc1 [Example 61, 2,2-DIPHENYL-N-(3-(SPIRO[INDANE-2,4′-PIPERIDINE]-10-YL)PROPYL)ACETAMIDE] | 0.049 µM |
| CC(C(=O)NCCCN1CCC2(CCc3ccccc32)CC1)c1ccc(Cl)cc1 (stereo not drawn) [Example 50, 2-(4-CHLOROPHENYL)-N-(3-(SPIRO[INDANE-1,4′-PIPERIDINE]-10-YL)PROPYL)PROPANAMIDE] | 0.194 µM |
| O=C(NCCCN1CCC2(CCc3ccccc32)CC1)C1(c2ccc(Cl)cc2)CCCC1 [Example 52, [1-(4-CHLOROPHENYL)CYCLOPENTYL]-N-(3-(SPIRO[INDANE-1,4′-PIPERIDINE]-10-YL)PROPYL)CARBOXAMIDE] | 0.112 µM |
| O=C(NCCCN1CCC2(CC1)Cc1ccccc1C2=O)C(c1ccc(F)cc1)c1ccc(F)cc1 [Example 92, 2,2-BIS(4-FLUOROPHENYL)-N-[3-(1-OXOSPIRO[INDANE-2,4′-PIPERIDINE]-10-YL)PROPYL]ACETAMIDE] | 0.0616 µM |
| O=S(=O)(NCCCCCN1CCC2(CCc3ccccc32)CC1)c1cccc(C(F)(F)F)c1 [Example 21, (5-(SPIRO[INDANE-1,4′-PIPERIDINE]-10-YL)PENTYL){[3-(TRIFLUORO-METHYL)PHENYL]SULFONYL}AMINE] | 0.992 µM |
| O=C(NCCCCCN1CCC2(CCc3ccccc32)CC1)c1cccnc1Oc1ccc(Cl)cc1 [Example 31, [2-(4-CHLOROPHENOXY)(3-PYRIDYL)]-N-(5-(SPIRO[INDANE-1,4′-PIPERIDINE]-10-YL)PENTYL)CARBOXAMIDE] | 0.212 µM |
| O=C(NCCCCN1CCC2(CCc3ccccc32)CC1)c1cccc(Cl)c1 [Example 18, (3-CHLOROPHENYL)-N-(4-(SPIRO[INDANE-1,4′-PIPERIDINE]-10-YL)BUTYL)CARBOXAMIDE] | 0.342 µM |
| O=C1OC2(CCN(CCCNC(=O)C(c3ccccc3)c3ccccc3)CC2)c2ccccc21 [Example 93, N-[3-(1-OXOSPIRO[3-HYDROISOBENZOFURAN-3,4′-PIPERIDINE]-10-YL)PROPYL]-2,2-DIPHENYLACETAMIDE] | 0.783 µM |
| O=C(NCCCN1CCC2(CC1)C(=O)CCc1ccccc12)C(c1ccccc1)c1ccccc1 [Example 98, N-[3-(2-OXOSPIRO[1,3,4-TRIHYDRONAPHTHALENE-1,4′-PIPERIDINE]-11-YL)PROPYL]-2,2-DIPHENYLACETAMIDE] | 0.682 µM |
| O=C(NCCCN1CCC2(C=Cc3ccccc32)CC1)C1(c2ccc(Cl)cc2)CCCCC1 [Example 71, [(4-CHLOROPHENYL)CYCLOHEXYL]-N-(3-(SPIRO[INDENE-1,4′-PIPERIDINE]-10-YL)PROPYL)CARBOXAMIDE] | 0.071 µM |
| O=C1OC2(CCN(CCCNC(=O)C(c3ccc(F)cc3)c3ccc(F)cc3)CC2)c2ccccc21 [Example 95, 2,2-BIS(4-FLUOROPHENYL)-N-[3-(1-OXOSPIRO[3-HYDROISOBENZOFURAN-3,4′-PIPERIDINE]-10-YL)PROPYL]ACETAMIDE] | 0.0846 µM |
| O=C(NCCCCCN1CCC2(CCc3ccccc32)CC1)Nc1ccc(-c2ccccc2)cc1 [Example 27, N-(4-PHENYL)PHENYL)[(5-(SPIRO[INDANE-1,4′-PIPERIDINE]-10-YL)PENTYL)AMINO]CARBOXAMIDE] | 0.662 µM |
| O=C(NCCCN1CCC2(CCCc3ccccc32)CC1)C(c1ccccc1)c1ccccc1 [Example 96, 2,2-DIPHENYL-N-(3-(SPIRO[1,2,3,4-TETRAHYDRONAPHTHALENE-1,4′-PIPERIDINE]-11-YL) PROPYL)ACETAMIDE] | 0.128 µM |
| O=C(NCCCCN1CCC2(CCc3ccccc32)CC1)c1cccnc1Oc1ccc(Cl)cc1 [Example 32, [2-(4-CHLOROPHENOXY)(3-PYRIDYL)]-N-(4-(SPIRO[INDANE-1,4′-PIPERIDINE]-10-YL)BUTYL)CARBOXAMIDE] | 0.388 µM |
| O=C(NCCCN1CCC2(C=Cc3ccccc32)CC1)C1(c2ccc(Cl)cc2)CC1 [Example 73, [(4-CHLOROPHENYL)CYCLOPROPYL]-N-(3-(SPIRO[INDENE-1,4′-PIPERIDINE]-10-YL)PROPYL)CARBOXAMIDE] | 0.239 µM |
| CC(C(=O)NCCCN1CCC2(CC1)OCc1ccccc12)c1ccc(Cl)cc1 (stereo not drawn) [Example 83, 2-(4-CHLOROPHENYL)-N-(3-(SPIRO[1,3-DIHYDROISOBENZOFURAN-1,4′-PIPERIDINE]-10-YL)PROPYL)PROPANAMIDE] | 0.557 µM |
| O=C(NCCCN1CCC2(CC1)OCc1ccc(F)cc12)C(c1ccccc1)c1ccccc1 [Example 101, N-[3-(5-FLUOROSPIRO[1,3-DIHYDROISOBENZOFURAN-3,4′-PIPERIDINE]-10-YL)PROPYL]-2,2-DIPHENYLACETAMIDE] | 0.0058 µM |
| O=C(NCCCN1CCC2(CCc3ccccc32)CC1)C(c1ccc(Cl)cc1)c1ccc(Cl)cc1 [Example 55, 2,2-BIS(4-CHLOROPHENYL)-N-(3-(SPIRO[INDANE-1,4′-PIPERIDINE]-10-YL)PROPYL)ACETAMIDE] | 0.0086 µM |

From patent publication US7335665B2, “Spirocyclic piperidines as MCH1 antagonists and uses thereof” (H - Lundbeck A/S, priority 2003, dated 2008)
